From PubChem BioAssay (NCI)
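96-well plates; 48 h exposure; 5 concentrations. Endpoints by linear interpolation between flanking doses. Not reached: highest tested concentration assigned. Here, GI50 denotes the concentration required for 50% inhibition of growth. TGI is the concentration that stops growth completely.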

Legend:
Assay in all cases: NCI anticancer screen, dose series, 48 h
786-0 renal = system: 786-0 renal
A498 renal = system: A498 renal
A549 NSCLC = system: A549 NSCLC
ACHN renal = system: ACHN renal
BT-549 breast = system: BT-549 breast
CAKI-1 renal = system: CAKI-1 renal
CCRF-CEM leukemia = system: CCRF-CEM leukemia
COLO 205 colon = system: COLO 205 colon
DU-145 prostate = system: DU-145 prostate
EKVX NSCLC = system: EKVX NSCLC
HCC-2998 colon = system: HCC-2998 colon
HCT-116 colon = system: HCT-116 colon
HCT-15 colon = system: HCT-15 colon
HL-60(TB) leukemia = system: HL-60(TB) leukemia
HOP-62 NSCLC = system: HOP-62 NSCLC
HOP-92 NSCLC = system: HOP-92 NSCLC
HS 578T breast = system: HS 578T breast
HT29 colon = system: HT29 colon
IGROV1 ovarian = system: IGROV1 ovarian
K-562 leukemia = system: K-562 leukemia
KM12 colon = system: KM12 colon
LOX IMVI melanoma = system: LOX IMVI melanoma
M14 melanoma = system: M14 melanoma
MALME-3M melanoma = system: MALME-3M melanoma
MCF7 breast = system: MCF7 breast
MDA-MB-231 breast = system: MDA-MB-231 breast
MDA-MB-435 = system: MDA-MB-435
MOLT-4 leukemia = system: MOLT-4 leukemia
NCI-H226 lung = system: NCI-H226 lung
NCI-H23 lung = system: NCI-H23 lung
NCI-H460 lung = system: NCI-H460 lung
NCI-H522 lung = system: NCI-H522 lung
NCI/ADR-RES ovarian = system: NCI/ADR-RES ovarian
OVCAR-3 ovarian = system: OVCAR-3 ovarian
OVCAR-4 ovarian = system: OVCAR-4 ovarian
OVCAR-5 ovarian = system: OVCAR-5 ovarian
OVCAR-8 ovarian = system: OVCAR-8 ovarian
PC-3 prostate = system: PC-3 prostate
RPMI-8226 leukemia = system: RPMI-8226 leukemia
RXF 393 renal = system: RXF 393 renal
SF-268 CNS = system: SF-268 CNS
SF-295 CNS = system: SF-295 CNS
SF-539 CNS = system: SF-539 CNS
SK-MEL-2 melanoma = system: SK-MEL-2 melanoma
SK-MEL-28 melanoma = system: SK-MEL-28 melanoma
SK-MEL-5 melanoma = system: SK-MEL-5 melanoma
SK-OV-3 ovarian = system: SK-OV-3 ovarian
SN12C renal = system: SN12C renal
SNB-19 CNS = system: SNB-19 CNS
SNB-75 CNS = system: SNB-75 CNS
SR leukemia = system: SR leukemia
SW-620 colon = system: SW-620 colon
T-47D breast = system: T-47D breast
TK-10 renal = system: TK-10 renal
U251 CNS = system: U251 CNS
UACC-257 melanoma = system: UACC-257 melanoma
UACC-62 melanoma = system: UACC-62 melanoma
UO-31 renal = system: UO-31 renal

Compound `CN1CCN(Cc2ccc(NC(=O)c3cncc(C#Cc4cnc5ccc(N)nn45)c3)cc2C(F)(F)F)CC1` has a GI50 (786-0 renal) of 2080 nM, a TGI (786-0 renal) of 6.22 µM and a GI50 (A498 renal) of 2720 nM. For the same compound, the TGI (A498 renal) was 10.6 µM, the GI50 (A549 NSCLC) was 1620 nM and the TGI (A549 NSCLC) was 5.89 µM. The GI50 (ACHN renal) was 2440 nM, the TGI (ACHN renal) was 8.15 µM and the GI50 (BT-549 breast) was 2070 nM. For the same compound, the TGI (BT-549 breast) was 6.05 µM, the GI50 (CAKI-1 renal) was 1570 nM and the TGI (CAKI-1 renal) was 5.83 µM. It also gave a GI50 (CCRF-CEM leukemia) of 240 nM, a TGI (CCRF-CEM leukemia) of 50 µM and a GI50 (COLO 205 colon) of 348 nM. For the same compound, the TGI (COLO 205 colon) was 1350 nM, the GI50 (DU-145 prostate) was 1390 nM and the TGI (DU-145 prostate) was 5.73 µM. For the same compound, the GI50 (EKVX NSCLC) was 2630 nM, the TGI (EKVX NSCLC) was 13.3 µM and the GI50 (HCC-2998 colon) was 1180 nM. It also gave a TGI (HCC-2998 colon) of 5.65 µM, a GI50 (HCT-116 colon) of 233 nM and a TGI (HCT-116 colon) of 2890 nM. The GI50 (HCT-15 colon) was 1990 nM, the TGI (HCT-15 colon) was 12.2 µM and the GI50 (HL-60(TB) leukemia) was 306 nM. The TGI (HL-60(TB) leukemia) was 1550 nM, the GI50 (HOP-62 NSCLC) was 1020 nM and the TGI (HOP-62 NSCLC) was 3.71 µM. The GI50 (HOP-92 NSCLC) was 138 nM, the TGI (HOP-92 NSCLC) was 538 nM and the GI50 (HS 578T breast) was 804 nM. The TGI (HS 578T breast) was 5.3 µM, the GI50 (HT29 colon) was 444 nM and the TGI (HT29 colon) was 2280 nM. For the same compound, the GI50 (IGROV1 ovarian) was 1070 nM, the TGI (IGROV1 ovarian) was 4.64 µM and the GI50 (K-562 leukemia) was 5 nM. The TGI (K-562 leukemia) was 18.1 µM, the GI50 (KM12 colon) was 8.16 nM and the TGI (KM12 colon) was 1070 nM. The GI50 (LOX IMVI melanoma) was 510 nM, the TGI (LOX IMVI melanoma) was 1280 nM and the GI50 (M14 melanoma) was 690 nM. The TGI (M14 melanoma) was 1570 nM, the GI50 (MALME-3M melanoma) was 496 nM and the TGI (MALME-3M melanoma) was 1520 nM. The GI50 (MCF7 breast) was 284 nM, the TGI (MCF7 breast) was 2370 nM and the GI50 (MDA-MB-231 breast) was 352 nM. The TGI (MDA-MB-231 breast) was 2610 nM, the GI50 (MDA-MB-435) was 674 nM and the TGI (MDA-MB-435) was 5.78 µM. It also gave a GI50 (MOLT-4 leukemia) of 369 nM, a TGI (MOLT-4 leukemia) of 5.81 µM and a GI50 (NCI-H226 lung) of 214 nM. It also gave a TGI (NCI-H226 lung) of 6.12 µM, a GI50 (NCI-H23 lung) of 777 nM and a TGI (NCI-H23 lung) of 2860 nM. The GI50 (NCI-H460 lung) was 526 nM, the TGI (NCI-H460 lung) was 3.29 µM and the GI50 (NCI-H522 lung) was 234 nM. It also gave a TGI (NCI-H522 lung) of 1270 nM, a GI50 (NCI/ADR-RES ovarian) of 25.6 µM and a TGI (NCI/ADR-RES ovarian) of 50 µM. For the same compound, the GI50 (OVCAR-3 ovarian) was 1670 nM, the TGI (OVCAR-3 ovarian) was 12.6 µM and the GI50 (OVCAR-4 ovarian) was 1580 nM. It also gave a TGI (OVCAR-4 ovarian) of 16.8 µM, a GI50 (OVCAR-5 ovarian) of 1410 nM and a TGI (OVCAR-5 ovarian) of 9.4 µM. The GI50 (OVCAR-8 ovarian) was 1290 nM, the TGI (OVCAR-8 ovarian) was 5.39 µM and the GI50 (PC-3 prostate) was 1330 nM. It also gave a TGI (PC-3 prostate) of 10.8 µM, a GI50 (RPMI-8226 leukemia) of 1490 nM and a TGI (RPMI-8226 leukemia) of 5.09 µM. The GI50 (RXF 393 renal) was 842 nM, the TGI (RXF 393 renal) was 1780 nM and the GI50 (SF-268 CNS) was 867 nM. The TGI (SF-268 CNS) was 3.46 µM, the GI50 (SF-295 CNS) was 2850 nM and the TGI (SF-295 CNS) was 10.9 µM. It also gave a GI50 (SF-539 CNS) of 288 nM, a TGI (SF-539 CNS) of 3.26 µM and a GI50 (SK-MEL-2 melanoma) of 591 nM. The TGI (SK-MEL-2 melanoma) was 1940 nM, the GI50 (SK-MEL-28 melanoma) was 954 nM and the TGI (SK-MEL-28 melanoma) was 2180 nM. It also gave a GI50 (SK-MEL-5 melanoma) of 3.73 µM, a TGI (SK-MEL-5 melanoma) of 10.3 µM and a GI50 (SK-OV-3 ovarian) of 2540 nM. For the same compound, the TGI (SK-OV-3 ovarian) was 25.7 µM, the GI50 (SN12C renal) was 850 nM and the TGI (SN12C renal) was 4.48 µM. It also gave a GI50 (SNB-19 CNS) of 1680 nM, a TGI (SNB-19 CNS) of 15.3 µM and a GI50 (SNB-75 CNS) of 593 nM. For the same compound, the TGI (SNB-75 CNS) was 3.18 µM, the GI50 (SR leukemia) was 264 nM and the TGI (SR leukemia) was 2240 nM. It also gave a GI50 (SW-620 colon) of 356 nM, a TGI (SW-620 colon) of 3.11 µM and a GI50 (T-47D breast) of 2570 nM. It also gave a TGI (T-47D breast) of 23.9 µM, a GI50 (TK-10 renal) of 1290 nM and a TGI (TK-10 renal) of 2650 nM. It also gave a GI50 (U251 CNS) of 1300 nM, a TGI (U251 CNS) of 6.98 µM and a GI50 (UACC-257 melanoma) of 1070 nM. For the same compound, the TGI (UACC-257 melanoma) was 3.34 µM, the GI50 (UACC-62 melanoma) was 1360 nM and the TGI (UACC-62 melanoma) was 5.05 µM. The GI50 (UO-31 renal) was 5.05 µM and the TGI (UO-31 renal) was 12.9 µM.
